≈ marks a conversion by molar mass, not a printed value. Read-outs that look alike come from different tables or passages of the source.
How the values were obtained:
[1] = molecular target: T1, COMT (Rattus norvegicus, UniProt P22734); experiment: Inhibition of COMT in vitro (enzyme from rat liver, 4-nitrocatechol substrate); format: biochemical; details: in dimethylsulfoxide solution, read-out: percentages of inhibition (COMT); for inhibition at 1000 µM: 10^-3 mole/l; for inhibition at 100 µM: 10^-4 mole/l; for inhibition at 10 µM: 10^-5 mole/l
T1 construct: The enzyme is extracted from rat liver; from tissue; host or cells: rat liver
T1 sequence (P22734 1-221 isoform P22734-2): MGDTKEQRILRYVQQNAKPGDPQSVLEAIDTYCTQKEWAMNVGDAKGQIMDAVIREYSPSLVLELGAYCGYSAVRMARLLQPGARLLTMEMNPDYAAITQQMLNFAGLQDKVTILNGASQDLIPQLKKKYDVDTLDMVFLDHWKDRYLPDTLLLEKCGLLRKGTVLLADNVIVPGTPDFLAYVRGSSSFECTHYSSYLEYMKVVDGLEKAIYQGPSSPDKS
Description: Inhibition of COMT in vitro The enzyme is extracted from rat liver by the method described by Axelrod et al, J. Biol. Chem., 233, 702(1958); its activity is measured in the presence of S-adenosyl methionine and using as substrate 4-nitrocatechol by the method described by Lee et al, J. Pharm. Sci., 66(7), 986(1977). The quantity of 4-nitrocatechol consumed was determined spectrophotometrically at 520 nm in alkaline medium.

[2] = molecular target: T2, Aldose Reductase (Bos taurus, UniProt P16116); experiment: Inhibition of aldose reductase in vitro (enzyme from beef eye lenses, glyceraldehyde substrate); format: biochemical; details: in DMF solution, read-out: percentages of inhibition (aldose reductase); for inhibition at 100 µM: 10^-4 mole/l; for inhibition at 10 µM: 10^-5 mole/l; for inhibition at 1 µM: 10^-6 mole/l
T2 construct: The enzyme is extracted from beef eye lenses; from tissue; host or cells: beef eye lenses
Text: Inhibition of Aldose Reductase In Vitro
The reoxidation of NADPH coupled to the enzymatic reaction was followed spectrophotometrically at 340 nm.

[3] = Solubilities in water; format: physicochemical; details: water
[4] = system: carragenin edema; experiment: Anti-inflammatory activity: carragenin edema test; format: in vivo; details: Rattus norvegicus, ip, saturated bicarbonate solution, read-out: % inhibition of carragenin edema; for inhibition in vivo at 50 mg/kg: 50 mg/kg i.p.; for inhibition in vivo at 100 mg/kg: 100 mg/kg i.p.
Description: Anti-inflammatory activity
This was determined by the carragenin edema test using male Wistar EOPS rats. Inflammation was induced by the injection of 0.1 ml of a suspension of 5% carragenin in physiological serum into the muscular bundle of the metatarsal region of the posterior paw of the animal. The test substance was administered i.p. in neutralized solution at the same time as the carragenin.
Edema was measured by plethysmometry at different times after the administration of the carragenin.
Tables IV and V show the percentages of inhibition as a function of time and of dosage for certain compounds of the present invention.
The above results were obtained for solutions of substantially alkaline
The reference experiments were performed using physiological serum brough
to a pH approximately the same as the pH of the solutions to be tested.

| inhibition at 1000 µM [1] [%] | inhibition at 100 µM [1] [%] | inhibition at 10 µM [1] [%] | inhibition at 100 µM [2] [%] | inhibition at 10 µM [2] [%] | inhibition at 1 µM [2] [%] | SMILES | further results |
| --- | --- | --- | --- | --- | --- | --- | --- |
| 76 | 52 | 0 | 67 | 62 | 0 | C[C@@H]1O[C@@H](OC[C@H]2O[C@@H](Oc3c(-c4ccc(O)c(O)c4)oc4cc(O)cc(O)c4c3=O)[C@H](O)[C@@H](O)[C@@H]2O)[C@@H]2OC3(CCC4CCCCC4C3)O[C@@H]2[C@H]1O (stereo partly drawn) [No. 28, 3-O-(2,3-O,O-(2-perhydronaphthylidene)-6-α-L-rhamnosyl-β-D-glucosyl) quercetin] |  |
|  | 81 to 83 | 33 to 36 | 100 | 92 | 44 | C[C@@H]1O[C@@H](OC[C@H]2O[C@@H](Oc3c(-c4ccc(O)c(O)c4)oc4cc(O)cc(O)c4c3=O)[C@H](O)[C@@H](O)[C@@H]2O)[C@@H]2OC3(O[C@@H]2[C@H]1O)C1CC2CC(C1)CC3C2 (stereo partly drawn) [No. 33, 3-O-(2,3-O,O-adamantylidene-6-α-L-rhamnosyl-β-D-glucosyl)quercetin] | inhibition at 0.1 µM ([2]; 10^-7 mole/l): 7% |
| 91 |  | 15 to 22 | 100 | 69 | 22 | COc1ccc(C2(C)O[C@@H]3[C@@H](O)[C@H](C)O[C@@H](OC[C@H]4O[C@@H](Oc5c(-c6ccc(O)c(O)c6)oc6cc(O)cc(O)c6c5=O)[C@H](O)[C@@H](O)[C@@H]4O)[C@@H]3O2)cc1 (stereo partly drawn) [No. 36, 3-O-(2,3-O,O-(α-methyl-p-methoxybenzylidene)-6-α-L-rhamnosyl-β-D-glucosyl) quercetin] |  |
|  |  |  |  |  |  | COc1ccc([C@@H]2CC(=O)c3c(O)cc(O[C@@H]4O[C@H](CO[C@@H]5O[C@@H](C)[C@H](O)[C@@H](O)[C@H]5O)[C@@H](O)[C@H](O)[C@H]4O)cc3O2)cc1O [Hesperidin, reference compound] | solubility ([3]; read-out: Solubilities in water): 20 µg/mL (≈ 32.8 µM) |
|  |  |  | 93 | 83 | 11 | C[C@@H]1O[C@@H](Oc2c(-c3cc(O)c(O)c(O)c3)oc3cc(O)cc(O)c3c2=O)[C@@H]2OC(C)(C)O[C@@H]2[C@H]1O [No. 14, 3-O-(2,3-O,O-isopropylidene-α-L-rhamnosyl)myricitin] |  |
|  |  |  |  |  |  | C[C@@H]1O[C@@H](Oc2c(-c3ccc(O)c(O)c3)oc3cc(O)cc(O)c3c2=O)[C@H](O)[C@H](O)[C@H]1O [Quercitrin, reference compound] | Solubilities in water [3]: insoluble |
|  |  |  |  |  |  | O=c1c(O)c(-c2ccc(O)c(O)c2)oc2cc(O)cc(O)c12 [quercetin, reference compound] | inhibition in vivo at 50 mg/kg ([4]; 1/2 h): 0%; inhibition in vivo at 100 mg/kg ([4]; 1/2 h): 2%; inhibition in vivo at 50 mg/kg ([4]; 1 h, 1 h 1/2): 0%; inhibition in vivo at 50 mg/kg ([4]; 1 h, 1 h): 0%; inhibition in vivo at 100 mg/kg ([4]; 1 h, 1 h 1/2): 8%; inhibition in vivo at 100 mg/kg ([4]; 1 h, 1 h): 0%; inhibition in vivo at 50 mg/kg ([4]; 2 h, 2 h): 0%; inhibition in vivo at 100 mg/kg ([4]; 2 h, 2 h): 7%; inhibition in vivo at 50 mg/kg ([4]; 3 h, 3 h): 0%; inhibition in vivo at 100 mg/kg ([4]; 3 h, 3 h): 0%; inhibition in vivo at 50 mg/kg ([4]; 4 h, 4 h): 0%; inhibition in vivo at 100 mg/kg ([4]; 4 h, 4 h): 0%; inhibition in vivo at 50 mg/kg ([4]; 5 h, 5 h): 0%; inhibition in vivo at 100 mg/kg ([4]; 5 h, 5 h): 0%; inhibition in vivo at 50 mg/kg ([4]; 6 h, 6 h): 0%; inhibition in vivo at 100 mg/kg ([4]; 6 h, 6 h): 0% |
| 80 to 100 | 80 to 92 | 45 | 92 | 79 | 0 | COc1ccc(C2O[C@@H]3[C@@H](O)[C@H](C)O[C@@H](OC[C@H]4O[C@@H](Oc5c(-c6ccc(O)c(O)c6)oc6cc(O)cc(O)c6c5=O)[C@H](O)[C@@H](O)[C@@H]4O)[C@@H]3O2)cc1 (stereo partly drawn) [No. 22, 3-O-(2,3-O,O-p-methoxybenzylidene-6-α-L-rhamnosyl-β-D-glucosyl)quercetin] |  |
|  |  |  | 33 |  |  | C[C@@H]1O[C@@H](O[C@H]2[C@H](Oc3cc(O)c4c(c3)O[C@H](c3ccc(O)cc3)CC4=O)O[C@H](CO)[C@@H](O)[C@@H]2O)[C@H](O)[C@H](O)[C@H]1O [Naringin, reference compound] |  |
| 90 | 74 | 72 | 100 | 72 | 26 | Cc1ccc(C2(C)O[C@@H]3[C@@H](O)[C@H](C)O[C@@H](OC[C@H]4O[C@@H](Oc5c(-c6ccc(O)c(O)c6)oc6cc(O)cc(O)c6c5=O)[C@H](O)[C@@H](O)[C@@H]4O)[C@@H]3O2)cc1 (stereo partly drawn) [No. 35, 3-O-(2,3-O,O-(α-methyl-p-methylbenzylidene)-6-α-L-rhamnosyl-β-D-glucosyl) quercetin] |  |
| 80 | 90 | 40 | 80 | 41 |  | C[C@@H]1O[C@@H](OC[C@H]2O[C@@H](Oc3c(-c4ccc(O)c(O)c4)oc4cc(O)cc(O)c4c3=O)[C@H](O)[C@@H](O)[C@@H]2O)[C@@H]2OC(c3ccc(O)cc3)O[C@@H]2[C@H]1O (stereo partly drawn) [No. 23, 3-O-(2,3-O,O-p-hydroxybenzylidene-6-α-L-rhamnosyl-β-D-glucosyl)quercetin] |  |
| 100 | 74 | 27 | 100 | 59 | 24 | C[C@@H]1O[C@@H](OC[C@H]2O[C@@H](Oc3c(-c4ccc(O)c(O)c4)oc4cc(O)cc(O)c4c3=O)[C@H](O)[C@@H](O)[C@@H]2O)[C@@H]2OC(C)(c3ccc(Cl)cc3)O[C@@H]2[C@H]1O (stereo partly drawn) [No. 37, 3-O-(2,3-O,O-(α-methyl-p-chlorobenzylidene)-6-α-L-rhamnosyl-β-D-glucosyl) quercetin] |  |
|  |  |  | 71 | 0 |  | O=c1ccc2cc(O[C@@H]3O[C@@H]4COC(c5ccc(O)c(O)c5)O[C@H]4[C@H](O)[C@H]3O)c(O)cc2o1 (stereo partly drawn) [No. 24, 6-O-(4,6-O,O-(3,4-dihydroxybenzylidene)-β-D-glucosyl) esculetol] |  |

| SMILES | inhibition at 1000 µM [1] [%] | inhibition at 100 µM [1] [%] | inhibition at 10 µM [1] [%] | inhibition at 100 µM [2] [%] | inhibition at 10 µM [2] [%] | inhibition at 1 µM [2] [%] | further results |
| --- | --- | --- | --- | --- | --- | --- | --- |
| C[C@@H]1O[C@@H](Oc2c(-c3cc(O)c(O)c(O)c3)oc3cc(O)cc(O)c3c2=O)[C@H](O)[C@H](O)[C@H]1O [Myricitrin, reference compound] |  |  |  | 83 | 56 | 9 |  |
